Measurements: ChEMBL document CHEMBL1125524, “Adenosine A1 antagonists. 2. Structure-activity relationships on diuretic activities and protective effects against acute renal failure” (J Med Chem, 1992)

Tests used:
[1] = tested on: Rattus norvegicus; assay: Serum creatinine concentration measured after intraperitoneal administration of 1 mg/kg of compound to rats(vehicle 3.62+/-0.52); format: functional
[2] = tested on: Rattus norvegicus; assay: Serum creatinine concentration measured after intraperitoneal administration of 10 mg/kg of compound to rats(vehicle 3.93+/-0.45); format: functional
[3] = tested on: Rattus norvegicus; assay: Effect on urinary excretion potassium and sodium after oral administration of 0.4 mg/kg to rats(potassium and sodium excretion in control rat is 0.191+/-0.020); format: functional, Urine
[4] = tested on: Rattus norvegicus; assay: Percent inhibition of serum creatinine by the compound given as ratio of Cr value in treated to vehicle treated ones after intraperitoneal administration of 10 mg/kg of compound to rats(vehicle 3.93+/-0.45); format: functional; conditions: ip
[5] = tested on: Rattus norvegicus; assay: Ratio of urinary excretion value (urinary volume) in treated rats to that in control rats, at a peroral dose of 0.1 mg/Kg; format: functional, Urine
[6] = tested on: Rattus norvegicus; assay: Ratio of urinary excretion value (urinary volume) in treated rats to that in control rats, at a peroral dose of 0.4 mg/Kg; format: functional, Urine
[7] = tested on: Rattus norvegicus; assay: Ratio of urinary excretion value (urinary volume) in treated rats to that in control rats, at a peroral dose of 1.6 mg/Kg; format: functional, Urine
[8] = tested on: Rattus norvegicus; assay: Percent inhibition of serum creatinine by the compound given as ratio of Cr value in treated to vehicle treated ones after intraperitoneal administration of 1 mg/kg of compound to rats(vehicle 3.62+/-0.52); format: functional; conditions: ip
[9] = tested on: Rattus norvegicus; assay: Oral diuretic activity was measured after oral administration of 0.1 mg/kg to rats(control volume is 1.15+/-0.12); format: functional, Urine
[10] = tested on: Rattus norvegicus; assay: Ratio of sodium ion/potassium ion concentration in treated rats to that in control rats, at a peroral dose of 0.1 mg/Kg; format: functional
[11] = tested on: Rattus norvegicus; assay: Ratio of sodium ion/potassium ion concentration in treated rats to that in control rats, at a peroral dose of 0.4 mg/Kg; format: functional
[12] = tested on: Rattus norvegicus; assay: Ratio of sodium ion/potassium ion concentration in treated rats to that in control rats, at a peroral dose of 1.6 mg/Kg; format: functional
[13] = tested on: Rattus norvegicus; assay: Ratio of urinary excretion value (Na+ concentration) in treated rats to that in control rats, at a peroral dose of 0.1 mg/Kg; format: functional, Urine
[14] = tested on: Rattus norvegicus; assay: Ratio of urinary excretion value (Na+ concentration) in treated rats to that in control rats, at a peroral dose of 0.4 mg/Kg; format: functional, Urine
[15] = tested on: Rattus norvegicus; assay: Ratio of urinary excretion value (Na+ concentration) in treated rats to that in control rats, at a peroral dose of 1.6 mg/Kg; format: functional, Urine
[16] = tested on: Rattus norvegicus; assay: Urea nitrogen concentration measured after intraperitoneal administration of 1 mg/kg of compound to rats(vehicle 105.2+/-14.9); format: functional
[17] = tested on: Rattus norvegicus; assay: Oral diuretic activity was measured after oral administration of 0.4 mg/kg to rats(control volume is 1.15+/-0.17); format: functional, Urine
[18] = tested on: Rattus norvegicus; assay: Oral diuretic activity was measured after oral administration of 1.6 mg/kg to rats(control volume is 0.96+/-0.09); format: functional, Urine
[19] = tested on: Rattus norvegicus; assay: Urea nitrogen concentration measured after intraperitoneal administration of 10 mg/kg of compound to rats(vehicle 129.1+/-14.5); format: functional
[20] = tested on: Rattus norvegicus; assay: Percent inhibition of Urea nitrogen by the compound given as ratio of UN value in treated to vehicle treated ones after intraperitoneal administration of 1 mg/kg of compound to rats(vehicle 105.2+/-14.9); format: functional; conditions: ip
[21] = tested on: Rattus norvegicus; assay: Percent inhibition of Urea nitrogen by the compound given as ratio of UN value in treated to vehicle treated ones after intraperitoneal administration of 10 mg/kg of compound to rats(vehicle 129.1+/-14.5); format: functional; conditions: ip
[22] = tested on: Rattus norvegicus; assay: Effect on urinary excretion potassium and sodium after oral administration of 1.6 mg/kg to rats(potassium and sodium excretion in control rat is 0.147+/-0.015); format: functional, Urine
[23] = tested on: Rattus norvegicus; assay: Effect on urinary excretion potassium and sodium after oral administration of 0.1 mg/kg to rats(potassium and sodium excretion in control rat is 0.133+/-0.022); format: functional, Urine
[24] = target: Adenosine A2 receptor (Rattus norvegicus, UniProt P29276+P30543)
[25] = tested on: Rattus norvegicus; assay: Serum creatinine concentration measured after intraperitoneal administration of 1 mg/kg of compound to rats(vehicle 4.19+/-0.2); format: functional
[26] = tested on: Rattus norvegicus; assay: Serum creatinine concentration measured after intraperitoneal administration of 0.1 mg/kg of compound to rats(vehicle 2.9+/-0.28); format: functional
[27] = tested on: Rattus norvegicus; assay: Effect on urinary excretion potassium and sodium after oral administration of 1.5 mg/kg to rats(potassium and sodium excretion in control rat is 0.165+/-0.008); format: functional, Urine
[28] = tested on: Rattus norvegicus; assay: Oral diuretic activity was measured after oral administration of 25 mg/kg to rats(control volume is 0.74+/-0.05); format: functional, Urine
[29] = tested on: Rattus norvegicus; assay: Ratio of urinary excretion value (urinary volume) in treated rats to that in control rats, at a peroral dose of 1.5 mg/Kg; format: functional, Urine
[30] = tested on: Rattus norvegicus; assay: Ratio of urinary excretion value (urinary volume) in treated rats to that in control rats, at a peroral dose of 25 mg/Kg; format: functional, Urine
[31] = tested on: Rattus norvegicus; assay: Urea nitrogen concentration measured after intraperitoneal administration of 1 mg/kg of compound to rats(vehicle 156.1+/-8.4); format: functional
[32] = tested on: Rattus norvegicus; assay: Ratio of sodium ion/potassium ion concentration in treated rats to that in control rats, at a peroral dose of 1.5 mg/Kg; format: functional
[33] = tested on: Rattus norvegicus; assay: Ratio of sodium ion/potassium ion concentration in treated rats to that in control rats, at a peroral dose of 25 mg/Kg; format: functional
[34] = tested on: Rattus norvegicus; assay: Ratio of urinary excretion value (Na+ concentration) in treated rats to that in control rats, at a peroral dose of 1.5 mg/Kg; format: functional, Urine
[35] = tested on: Rattus norvegicus; assay: Ratio of urinary excretion value (Na+ concentration) in treated rats to that in control rats, at a peroral dose of 25 mg/Kg; format: functional, Urine
[36] = tested on: Rattus norvegicus; assay: Ratio of urinary excretion value (Na+ concentration) in treated rats to that in control rats, at a peroral dose of 6.25 mg/Kg; format: functional, Urine
[37] = tested on: Rattus norvegicus; assay: Effect on urinary excretion potassium and sodium after oral administration of 25 mg/kg to rats(potassium and sodium excretion in control rat is […]+/-[…]); format: functional, Urine
[38] = tested on: Rattus norvegicus; assay: Oral diuretic activity was measured after oral administration of 1.5 mg/kg to rats(control volume is 1.01+/-0.08); format: functional, Urine
[39] = tested on: Rattus norvegicus; assay: Urea nitrogen concentration measured after intraperitoneal administration of 0.1 mg/kg of compound to rats(vehicle 93.4+/-10); format: functional
[40] = tested on: Rattus norvegicus; assay: Ratio of urinary excretion value (urinary volume) in treated rats to that in control rats, at a peroral dose of 6.25 mg/Kg; format: functional, Urine

CCn1c(=O)c2nc(C(C3CC3)C3CC3)[nH]c2n(CC)c1=O
Cr [1]: 3.24 mg/dL
Cr [2]: 1.74 mg/dL
Na [3]: 0.433 m equiv 6hr-1 100g-1
inhibition in vivo at 10 mg/kg [4]: 56%
T/C [5]: 0.72
T/C [6]: 1.84
T/C [7]: 1.71
inhibition in vivo at 1 mg/kg [8]: 10%
Urine volume [9]: 0.83 ml 6hr-1 100g-1
Na+/K+ [10]: 1.37
Na+/K+ [11]: 1.63
Na+/K+ [12]: 1.71
T/C [13]: 0.85
T/C [14]: 2.27
T/C [15]: 2.12
UN [16]: 98.5 mg/dL
Urine volume [17]: 2.11 ml 6hr-1 100g-1
Urine volume [18]: 1.72 ml 6hr-1 100g-1
UN [19]: 50.6 mg/dL
inhibition in vivo at 1 mg/kg [20]: 6%
inhibition in vivo at 10 mg/kg [21]: 61%
Na [22]: 0.312 m equiv 6hr-1 100g-1
Na [23]: 0.113 m equiv 6hr-1 100g-1
Ki [24]: 690 nM

CCCn1c(=O)[nH]c(=O)c2[nH]c(C(C3CC3)C3CC3)nc21
Cr [25]: 3 mg/dL
Cr [26]: 2.96 mg/dL
Na [27]: 0.202 m equiv 6hr-1 100g-1
Urine volume [28]: 1.85 ml 6hr-1 100g-1
T/C [29]: 1.12
T/C [30]: 2.5
UN [31]: 119.1 mg/dL
Na+/K+ [32]: 1.13
Na+/K+ [33]: 1.4
T/C [34]: 1.22
T/C [35]: 2.16
T/C [36]: 1.69
Na [37]: 0.328 m equiv 6hr-1 100g-1
Urine volume [38]: 1.13 ml 6hr-1 100g-1
UN [39]: 104.2 mg/dL
T/C [40]: 1.42
Ki [24]: > 100000 nM
